Experimental data: patent US6194173A, “Binding proteins for phosphoinositides, GRP1 or general receptor 1 for phophoinositide” (priority 1999, dated 2001)

B1: GRP PH domain: GST fusion protein containing residues 239 to 399 (PH domain) (protein)
chain: LYESIKNEPFKIPEDDGNDLTHTFFNPDREGWLLKLGGRVKTWKRRWFILTDNCLYYFEYTTDKEPRGIIPLENLSIREVEDPRKPNCFELYNPSHKGQVIKACKTEADGRVVEGNHVVYRISAPSPEEKEEWMKSIKASISRDPFYDMLATRKRRIANKK
modifications: GST fusion partner
B2: GRP Sec7 domain: GST fusion protein containing residues 52 to 260 (Sec7 domain) (protein, UniProt O08967 52-260, looked up, fragment)
chain: IDNLTSVEESKTTQRNKQIAMGRKKFNMDPKKGIQFLIENDLLQSSPEDVAQFLYKGEGLNKTVIGDYLGERDDFNIKVLQAFVELHEFADLNLVQALRQFLWSFRLPGEAQKIDRMMEAFASRYCLCNPGVFQSTDTCYVLSFAIIMLNTSLHNHNVRDKPTAERFITMNRGINEGGDLPEELLRNLYESIKNEPFKIPEDDGNDLTH
modifications: Sec7 domain GST fusion
B3: N-terminus of GRP: GST fusion protein containing residues 5 to 71 (protein, UniProt O08967 5-71, looked up, fragment)
chain: GGGEGGSVPEDLSLEEREELLDIRRRKKELIDDIERLKYEIAEVMTEIDNLTSVEESKTTQRNKQIA
modifications: GST fusion
B4: IRS-1PH domain: GST fusion protein containing amino acid 13-115 of murine IRS-1 (protein, UniProt P35569 13-115, looked up, fragment)
chain: VRKVGYLRKPKSMHKRFFVLRAASEAGGPARLEYYENEKKWRHKSSAPKRSIPLESCFNINKRADSKNKHLVALYTRDEHFAIAADSEAEQDSWYQALLQLHN
modifications: PH domain GST fusion

Experiments:
[1] = molecular target: T1, GRP (Mus musculus, UniProt O08967); assay: Inhibition by inositol phosphates of PtdIns(3,4,5)P3-stimulated GRP-mediated ARF1 exchange; type: biochemical; details: 100 μM inositol phosphate, 0.05% cholate and 0.05% CHAPS
T1 construct: GST (N, cleaved yes); made in house; host or cells: GRP from pGEX-4T; ARF1 from baculovirus-infected Sf-9 cells
T1 sequence (O08967 1-399): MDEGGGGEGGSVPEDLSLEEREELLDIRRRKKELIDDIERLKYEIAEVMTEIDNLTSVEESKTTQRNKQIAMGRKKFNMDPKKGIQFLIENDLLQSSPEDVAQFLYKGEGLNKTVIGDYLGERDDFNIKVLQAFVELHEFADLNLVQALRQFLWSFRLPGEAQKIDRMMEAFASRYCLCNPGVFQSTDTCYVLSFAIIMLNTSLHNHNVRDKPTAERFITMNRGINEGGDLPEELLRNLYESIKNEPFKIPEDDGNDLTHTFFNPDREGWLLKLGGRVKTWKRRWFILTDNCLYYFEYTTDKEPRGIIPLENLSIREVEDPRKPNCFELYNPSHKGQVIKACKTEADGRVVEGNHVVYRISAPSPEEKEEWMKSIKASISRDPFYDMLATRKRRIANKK

[2] = molecular target: T2, GSTPH(GRP) (Mus musculus, UniProt O08967); assay: Competition of [32P]PI(3,4,5)P3 binding to GST-PH by inositol phosphate head groups; design: species or system murine; details: for inhibition of [^32 P]PI(3,4,5)P3 binding to GST-PH(GRP): 100 μM competitor; for binding of inositol phosphate to GRP polypeptides: statement in the description
T2 construct: residues 239 to 399 (PH domain); made in house; host or cells: bacteria
T2 sequence (O08967 239-399): B1 chain
Source text: (§1) To generate the GST fusion proteins, PCR reactions using the primers: […] (SEQ ID NO:9) and […] (SEQ ID NO:10) for the GST-N construct, […] (SEQ ID NO:11) and […] (SEQ ID NO:12) for the GST-Sec7 construct, […] (SEQ ID NO:13) and […] (SEQ ID NO:14) for the GSTPH construct, and […] (SEQ ID NO:15) and […] (SEQ ID NO:16) for the GSTGRP constructs. The sequences of the PCR products were verified, and cloned into pGEX-5X-3 in the EcoRI and Xba 1 sites. The bacteria were lysed and the fusion proteins were bound to gluthathione agarose according to standard procedures. Elution was effected by incubation of the beads with one volume 20 mM Hepes, 100 mM NaCl, 1 mM dithiotreitol (H buffer) supplemented with 10 mM gluthatione and 1% sodium cholate, and the eluate was dialyzed extensively against H buffer. For binding assays, protein was bound to nitrocellulose using a BIO-RAD BIO-DOT™ apparatus, using 150 pmol per well for binding assays and 7.5 pmol for competition assays. The nitrocellulose was washed in assay buffer, and 3 mm circles of the filters containing the protein were cut out and incubated in […] assay buffer with the relevant lipids and competitors for 2 h under constant agitation. The filters were washed four times with 1 mL assay buffer and counted in a scintillation counter.
The specificity of the GRP PH domain for binding [^32 P]PI(3,4,5,)P3 was also examined with respect to competition by the inositol phosphate head groups of the phosphoinositides. […] More specifically, 25,000 cpm of [^32 P]PI(3,4,5)P3 was incubated with varying concentrations of inositol 1 ,3,4,5P4 and bound radioactivity determined. The amount of radioactivity bound was calculated as percent of that bound in the absence of competitor. The values are means of quadruplicate measurements, and the error bars are standard deviations. The lack of inhibition by the latter two phosphoinositides is particularly striking since they carry the same charge as the inhibitor […] The concentration of inositol 1,3,4,5-P4 that inhibited binding of [^32 p]PI(3,4,5,)P3 half maximally was about 3-6 μM (FIG. 5A). Taken together, the data in FIGS. 4 and 5 indicate extraordinary specificity of the GRP PH domain for PI(3,4,5)P3. […] The binding to GST fusion proteins containing amino acids 462-569 of murine Sos or amino acid 13-115 of murine IRS-1 was assayed using 150 pmoles of protein bound to the filters. Competition of binding to 7.5 pmoles of GST-PH was measured in the presence of 100 μM of the competitors. The values were calculated as in (A), and are means of quadruplicate measurements and the error bars represent standard deviations.

[3] = system: ARF1; assay: ARF1 guanine nucleotide exchange ([35S]GTPγS binding); type: biochemical; details: [^35 S]GTPγS binding to immunoprecipitated ARF1
[4] = Binding of [32P]PI(3,4,5)P3 by GST fusion proteins spotted on nitrocellulose; details: 150 pmol protein on nitrocellulose; relative to GST
Description: The 3'-phosphatidylinositol probes labeled at the 3' position were generated using GST-p110 PI3-kinase purified from recombinant bacculovirus infected Sf 9 cells, using either purified phosphatidylinositol phosphates or crude brain lipid. Briefly, 20 mg phospholipid in chloroform was dried under N2 and resuspended in […] of buffer containing Tris-HCl pH 7.4, EDTA 1 mM and incubated in […] phopsphorylation media containing 20 mM Tris-HCl pH 7.4, 100 mM NaCl, 10 mM MgCl2, 0.5 mM EGTA. 0.2 mM adenosine, GST-p110 and 5-10 mCi [g-^32 P]ATP (5 Ci/umol). The reaction was carried out for 2 h at room temperature, quenched by addition of 0.2 ml of 1M HCl, followed by 0.5 ml of chloroform:methanol (1:1). The organic phase containing phospholipids was washed 4 times with 0.4 ml of methanol:HCl (1: 1) and stored at -70° C. until use. Just before use, the lipid was dried under a stream of nitrogen with phosphatidyl serine corresponding to a final concentration of 20 mg/ml. The identities of the PI3-P, PI3,4-P2 and PI3,4,5-P3 were confirmed by TLC and HPLC analysis.
as §1
In order to determine whether PI(3,4,5)P3 binding could be localized to specific sequences within the GRP structure, GST fusion proteins containing either residues 239 to 399 (PH domain), residues 52 to 260 (Sec7 domain), or residues 5 to 71, full length GRP residues 5-399 were expressed in bacteria and purified on glutathione-conjugated beads. […] 150 pmol of the proteins were spotted on nitrocellulose filters, incubated with [^32 P]PI(3,4,5)P3 and the amount of bound lipid was determined as described. The values are the means of the quadruplicate determinations, and the error bars are the standard deviations. […] Nitrocellulose filters with GST-PH were incubated with 25,000 cpm of each of the phospholipids and the amount of bound lipid determined as described above. The values are the means of quadruplicate determinations and the error bars are the standard deviations. […] Although previous work has shown that PH domain from PLCδ (Lemmon et al. (1995) supra) and various other proteins bind 4,5-polyphosphoinositide, none have been reported to preferentially associate with a 3-polyphosphoinositide. […]

Molecule	inhibition of PtdIns(3,4,5)P3-stimulated GRP-mediated ARF1 guanine nucleotide exchange [1]	inhibition of [^32 P]PI(3,4,5)P3 binding to GST-PH(GRP) [2]	binding of inositol phosphate to GRP polypeptides [2]	ARF1 guanine nucleotide exchange [3]	binding of [^32 P]PI(3,4,5)P3 by GST fusion protein [4]	other results
O=P(O)(O)O[C@H]1[C@H](O)[C@@H](O)[C@H](OP(=O)(O)O)[C@@H](OP(=O)(O)O)[C@H]1O [Ins(1,3,4)P3]	failed to inhibit	–	–	–	–	–
O=P(O)(O)O[C@H]1[C@H](OP(=O)(O)O)[C@@H](OP(=O)(O)O)[C@H](O)[C@@H](O)[C@H]1OP(=O)(O)O (relative stereo) [Ins(1,2,5,6)P4, inositol 1,2,5,6-P4]	failed to inhibit	little or no effect	not	–	–	–
O=P(O)(O)O[C@@H]1[C@@H](O)[C@H](OP(=O)(O)O)[C@@H](OP(=O)(O)O)[C@@H](O)[C@H]1OP(=O)(O)O [Ins(1,3,4,6)P4, inositol 1,3,4,6-P4]	failed to inhibit	little or no effect	not	–	–	–
O=P(O)(O)O[C@H]1[C@H](O)[C@@H](OP(=O)(O)O)[C@H](OP(=O)(O)O)[C@@H](OP(=O)(O)O)[C@H]1O [Ins(1,3,4,5)P4, inositol 1,3,4,5-P4]	virtually ablated	markedly inhibited	bind	–	–	inhibition of PtdIns(3,4,5)P3-stimulated GRP-mediated ARF1 guanine nucleotide exchange ([1]; listed as Ins(1,3,4,5) tetrakisphosphate): selectively blocked; IC50 ([2]; 25,000 cpm [^32 P]PI(3,4,5)P3, GST-PH, read-out: concentration that inhibited binding of [^32 p]PI(3,4,5)P3 half maximally): 3 to 6 µM
B1	–	–	–	no effect	extensive binding	–
B2	–	–	–	high activity	No significant binding	ARF1 guanine nucleotide exchange ([3]; listed as SEC7 homology domain): as effective as the fill length GRP; ARF1 guanine nucleotide exchange ([3]; listed as Sec 7 domains of GRP): sufficient for catalysis
B3	–	–	–	no effect	No significant binding	–
B4	–	–	–	–	negligible	–
